According to patent US7732437B2, “Use of anti-histaminics for acute reduction of elevated intracranial pressure” (Janssen Pharmaceutica, NV., priority 2001, dated 2010):

What was measured:
[1] = molecular target: T1, human histamine H1-receptor (Homo sapiens, UniProt P35367); assay: Radioligand binding, histamine H1-receptor, competitive inhibition of [3H]Pyrilamine; settings: CHO-cells transfected with the human histamine H1-receptor, read-out: H1-antagonist activity (pIC50) (converted)
T1 construct: expressed in transfected cells; host or cells: CHO cells
T1 sequence (P35367 whole entry): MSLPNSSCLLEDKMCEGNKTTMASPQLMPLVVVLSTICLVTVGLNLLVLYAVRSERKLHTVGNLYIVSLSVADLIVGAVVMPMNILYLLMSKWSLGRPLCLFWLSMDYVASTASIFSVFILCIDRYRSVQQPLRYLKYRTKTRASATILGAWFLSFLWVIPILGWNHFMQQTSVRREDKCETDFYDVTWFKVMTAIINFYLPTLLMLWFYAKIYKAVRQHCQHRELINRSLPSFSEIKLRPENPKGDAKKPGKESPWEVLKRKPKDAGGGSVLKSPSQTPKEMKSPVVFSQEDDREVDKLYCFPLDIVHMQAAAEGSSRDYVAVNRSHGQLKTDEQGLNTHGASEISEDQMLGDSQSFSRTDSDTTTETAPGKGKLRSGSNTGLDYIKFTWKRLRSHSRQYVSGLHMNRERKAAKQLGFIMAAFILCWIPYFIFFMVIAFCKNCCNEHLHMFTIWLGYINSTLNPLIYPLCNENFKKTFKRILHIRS
Procedure: Competitive inhibition of [^3H] […] Incubation was done during 150 min at 22° C.

[2] = system: Sprague-Dawley rats with closed head injury; assay: Closed Head Injury (CHI) model, severe head injury; settings: for Effect on ICP / Effect on blood pressure: 0.5 mg/kg/min for 10 min, severe head injury, first 15 minutes, 6 rats; for effect on the lowering of the blood pressure: rat, in vivo
non-traumatised rats = assay: ICP and blood pressure in non-traumatized rats; format: in vivo, rat; settings: for effects of H2-agonists (ICP, blood pressure): dimaprit 0.5 mg/kg/min for 10 minutes, impromidine increasing doses up to 3.75 mg/kg/hour; for effects of H2-agonists on blood pressure and ICP, high dose: dimaprit 2 mg/kg/min for 10 minutes, impromidine bolus of 0.5 mg/kg
Procedure: For comparison, two commercially available H2-agonists (dimaprit and impromidine) were also tested by infusion into non-traumatized rats, using a dose of 0.5 mg/kg/min for 10 minutes for dimaprit and increasing doses up to 3.75 mg/kg/hour for impromidine.
Rats The effect of Compound 2, Compound 1 and Racemate (comp. 1 and comp. 2) on ICP, MABP and CPP was tested in anaesthetised non-traumatised rats. […] Conclusion

[3] = bolus of 1 mg/kg in 1 min, then infusion of 0.5 mg/kg/min for 44 min

For `Cc1nc2n(C)c3ccccc3n2c(=O)c1CCN1CCC(C2c3ccccc3CCn3c2nc2ccccc23)CC1Cc1ccccc1` (racemic) [Compound 15], the IC50 [1] was 316 nM, the “Decision (sequential statistical evaluation)” value (“Decision” below) [2, 3] was “active” and the “Delta %: average change of the relative ICP from baseline over the treatment period” value [2, 3] was −23.3%.

In the case of `Cc1nc2n(C)c3ccccc3n2c(=O)c1CCN1CCC(C2c3ccccc3CCn3c2nc2ccccc23)CC1Cc1ccccc1` (single isomer, unassigned) [Compound 17], the IC50 [1] is reported as 631 nM, the “Decision” value [2, 3] is reported as “active” and the “Delta %: average change of the relative ICP from baseline over the treatment period” value [2, 3] is reported as −8.9%.

`Cc1nc2n(C)c3ccccc3n2c(=O)c1CCN1CCC(C2c3ccccc3CCn3c2nc2ccccc23)CC1Cc1ccccc1` (single isomer, unassigned) [Compound 44] was tested, and the “Decision” value [2, 3] was “active” and the “Delta %: average change of the relative ICP from baseline over the treatment period” value [2, 3] was −14.8%.

`Cc1nc2n(C)c3ccccc3n2c(=O)c1CCN1CCC(C2c3ccccc3CCn3c2nc2ccccc23)CC1Cc1ccccc1` (single isomer, unassigned) [Compound 46] gave an IC50 [1] of 126 nM.

With `Cc1nc2n(C)c3ccccc3n2c(=O)c1CCN1CCC(C2c3ccccc3CCn3c2nc2ccccc23)CC1Cc1ccccc1` (single isomer, unassigned) [Compound 47] the IC50 [1] was 398 nM, the “Decision” value [2, 3] was “active” and the “Delta %: average change of the relative ICP from baseline over the treatment period” value [2, 3] was −12.0%.

Compound `Cc1nc2n(C)c3ccccc3n2c(=O)c1CCN1CCC(C2c3ccccc3CCn3c2nc2ccccc23)CC1Cc1ccccc1` (single isomer, unassigned) [Compound 57] has an IC50 [1] of 398 nM.

With `Cc1nc2n(C)c3ccccc3n2c(=O)c1CCN1CCC(C2c3ccccc3CCn3c2nc2ccccc23)CC1Cc1ccccc1` (single isomer, unassigned) [Compound 58] the IC50 [1] was 398 nM.

Compound `Cc1nc2ccccn2c(=O)c1CCN1CCC(C2c3ccccc3CCn3c2nc2ccccc23)C(C)C1` (single isomer, unassigned) [Compound 89] has an IC50 [1] of 794 nM.

In the case of `Cc1nc2ccccn2c(=O)c1CCN1CCC(C2c3ccccc3CCn3c2nc2ccccc23)C(C)C1` (single isomer, unassigned) [Compound 94], the IC50 [1] is reported as 100 nM.

For `CC(CN(C)C)CN1c2ccccc2Sc2ccccc21` (stereo not drawn) [Alimemazine, reference compound], the “Effect on ICP” value [2] was “−”.

`CN(C)CCC(c1ccc(Br)cc1)c1ccccn1` (stereo not drawn) [Brompheniramine, reference compound] was tested, and the “Effect on ICP” value [2] was “−”.

With `CN1CCN(C(c2ccccc2)c2ccc(Cl)cc2)CC1` (stereo not drawn) [Chlorcyclizine, reference compound] the “Effect on ICP” value [2] was “−”, the “Effect on blood pressure” value [2] was 0 and the “effect on the lowering of the blood pressure” value [2] was “no or little effect”.

With `CN1CCC[C@@H]1CCO[C@](C)(c1ccccc1)c1ccc(Cl)cc1` [Clemastine, reference compound] the “Effect on ICP” value [2] was “−”.

In the case of `Clc1ccc(Cn2c(CN3CCCC3)nc3ccccc32)cc1` [Clemizole, reference compound], the “Effect on ICP” value [2] is reported as “−”.

`CCn1c2ccccc2n2c(=O)c(CCN3CCC(C4c5ccccc5CCn5c4nc4ccccc45)CC3Cc3ccccc3)c(C)nc12` (stereo not drawn) [Compound 12] gave an IC50 [1] of 316 nM.

`Cc1nc2n(C)c3ccccc3n2c(=O)c1CCN1CCC(C2c3ccccc3CCn3c2nc2ccccc23)CC1Cc1ccccc1` (stereo not drawn) [Compound 13] was tested, and the IC50 [1] was 316 nM.

In the case of `Cc1nc2n(C)c3ccccc3n2c(=O)c1CCN1CCC(C2c3ccccc3CCn3c2nc2ccccc23)CC1` (stereo not drawn) [Compound 14], the IC50 [1] is reported as 25.1 nM.

With `Cc1nc2n(Cc3ccccn3)c3ccccc3n2c(=O)c1CCN1CCC(C2c3ccccc3CCn3c2nc2ccccc23)CC1Cc1ccccc1` (stereo not drawn) [Compound 20] the IC50 [1] was 398 nM.

In the case of `CCOCCn1c2ccccc2n2c(=O)c(CCN3CCC(C4c5ccccc5CCn5c4nc4ccccc45)CC3Cc3ccccc3)c(C)nc12` (stereo not drawn) [Compound 23], the IC50 [1] is reported as 200 nM.

Compound `Cc1cncc(Cn2c3ccccc3n3c(=O)c(CCN4CCC(C5c6ccccc6CCn6c5nc5ccccc56)CC4Cc4ccccc4)c(C)nc23)n1` (stereo not drawn) [Compound 27] has an IC50 [1] of 631 nM.

Compound `COCCOCn1c2ccccc2n2c(=O)c(CCN3CCC(C4c5ccccc5CCn5c4nc4ccccc45)CC3Cc3ccccc3)c(C)nc12` (stereo not drawn) [Compound 29] has an IC50 [1] of 501 nM.

With `Cc1nc2n(C)c3ccccc3n2c(=O)c1CCN1CCC(C2c3ccccc3CCn3c2nc2ccccc23)CC1Cc1ccccc1` (stereo not drawn) [Compound 30] the IC50 [1] was 794 nM, the “Decision” value [2, 3] was “active” and the “Delta %: average change of the relative ICP from baseline over the treatment period” value [2, 3] was −9.3%.

`CCOC(=O)Cn1c2ccccc2n2c(=O)c(CCN3CCC(C4c5ccccc5CCn5c4nc4ccccc45)CC3Cc3ccccc3)c(C)nc12` (stereo not drawn) [Compound 32] was tested, and the IC50 [1] was 398 nM, the “Decision” value [2, 3] was “active” and the “Delta %: average change of the relative ICP from baseline over the treatment period” value [2, 3] was −13.9%.

`COCCOCCn1c2ccccc2n2c(=O)c(CCN3CCC(C4c5ccccc5CCn5c4nc4ccccc45)CC3Cc3ccccc3)c(C)nc12` (stereo not drawn) [Compound 35] gave an IC50 [1] of 794 nM.

For `Cc1nc2n(CCOCCO)c3ccccc3n2c(=O)c1CCN1CCC(C2c3ccccc3CCn3c2nc2ccccc23)CC1Cc1ccccc1` (stereo not drawn) [Compound 37], the IC50 [1] was 631 nM.

With `Cc1nc2n(C)c3ccccc3n2c(=O)c1CCN1CCC(C2c3ccccc3CCn3c2nc2ccccc23)CC1Cc1ccccc1` (stereo not drawn) [Compound 48] the IC50 [1] was 316 nM.

`Cc1nc2n(C)c3ccccc3n2c(=O)c1CCN1CCC(C2c3ccccc3CCn3c2nc2ccccc23)CC1Cc1ccccc1` (stereo not drawn) [Compound 49] showed an IC50 [1] of 316 nM.

`Cc1nc2n(C)c3ccccc3n2c(=O)c1CCN1CCC(C2c3ccccc3CCn3c2nc2ccccc23)CC1Cc1ccccc1` (stereo not drawn) [Compound 50] gave an IC50 [1] of 251 nM.

Compound `CCOC(=O)Cn1c2ccccc2n2c(=O)c(CCN3CCC(C4c5ccccc5CCn5c4nc4ccccc45)CC3Cc3ccccc3)c(C)nc12` (stereo not drawn) [Compound 53] has an IC50 [1] of 316 nM.

Compound `CCOC(=O)Cn1c2ccccc2n2c(=O)c(CCN3CCC(C4c5ccccc5CCn5c4nc4ccccc45)CC3Cc3ccccc3)c(C)nc12` (stereo not drawn) [Compound 54] has an IC50 [1] of 316 nM.

Work on `Cc1nc2n(C)c3ccccc3n2c(=O)c1CCN1CCC(C2c3ccccc3CCn3c2nc2ccccc23)CC1Cc1ccccc1` (stereo not drawn) [Compound 55] yielded an IC50 [1] of 251 nM.

For `Cc1nc2ccccn2c(=O)c1CCN1CCC(C2c3ccccc3CCn3c2nc2ccccc23)CC1Cc1ccccc1` (stereo not drawn) [Compound 81], the IC50 [1] was 200 nM.

With `Cc1nc2sccn2c(=O)c1CCN1CCC(C2c3ccccc3CCn3c2nc2ccccc23)C(C)C1` (stereo not drawn) [Compound 87] the IC50 [1] was 251 nM.

Compound `Cc1nc2sccn2c(=O)c1CCN1CCC(C)(C2c3ccccc3CCn3c2nc2ccccc23)CC1` (stereo not drawn) [Compound 104] has an IC50 [1] of 100 nM.

In the case of `Cc1nc2sccn2c(=O)c1CCN1CCC(C2(C)c3ccccc3CCn3c2nc2ccccc23)CC1` (stereo not drawn) [Compound 110], the IC50 [1] is reported as 126 nM.

In the case of `CC(C1=C(CCN(C)C)Cc2ccccc21)c1ccccn1` (stereo not drawn) [Dimethindene, reference compound], the “Effect on ICP” value [2] is reported as “−”.

`CN1CCC(OC(c2ccccc2)c2ccccc2)CC1` [Diphenylpyraline, reference compound] was tested, and the “Effect on ICP” value [2] was “−”.

`CN1CCC(=C2c3ccccc3CC(=O)c3sccc32)CC1` [Ketotifen, reference compound] was tested, and the “Effect on blood pressure” value [2] was 0 and the “effect on the lowering of the blood pressure” value [2] was “no or little effect”.

In the case of `CCOC(=O)N1CCC(=C2c3ccc(Cl)cc3CCc3cccnc32)CC1` [Loratidine, reference compound], the “Effect on ICP” value [2] is reported as “−”.

For `OC[C@@H](O)[C@@H](O)[C@H](O)[C@H](O)CO` [Mannitol, mannitol, reference compound], the “mean reduction of ICP” value ([2]; i.v. mannitol 3 g over 45 min) was “about 20%”, the “effect of repeated infusion on ICP” value ([2]; mannitol i.v. 0.125 g/kg/min, same time windows) was “lowering of ICP” and the “Decision” value ([2]; mannitol infusion of 67 mg/kg/min for 45 min, 5 separate tests) was “active”. The “Delta %: average change of the relative ICP from baseline over the treatment period” value ([2]; mannitol infusion of 67 mg/kg/min for 45 min, 5 separate tests, listed as Mannitol^1, 67 mg/kg) was −21.7%, the “Delta %: average change of the relative ICP from baseline over the treatment period” value ([2]; mannitol infusion of 67 mg/kg/min for 45 min, 5 separate tests, listed as Mannitol^2, 67 mg/kg) was −22.1% and the “Delta %: average change of the relative ICP from baseline over the treatment period” value ([2]; mannitol infusion of 67 mg/kg/min for 45 min, 5 separate tests, listed as Mannitol^3, 67 mg/kg) was −13.0%. For the same compound, the “Delta %: average change of the relative ICP from baseline over the treatment period” value ([2]; mannitol infusion of 67 mg/kg/min for 45 min, 5 separate tests, listed as Mannitol^4, 67 mg/kg) was −19.3% and the “Delta %: average change of the relative ICP from baseline over the treatment period” value ([2]; mannitol infusion of 67 mg/kg/min for 45 min, 5 separate tests, listed as Mannitol^5, 67 mg/kg) was −19.9%.

In the case of `O=c1[nH]c2ccccc2n1CCCN1CCN(C(c2ccccc2)c2ccccc2)CC1` [Oxatomide, reference compound], the “Effect on ICP” value [2] is reported as “−” and the “Effect on blood pressure” value [2] is reported as “−”.

`Cc1nc2sccn2c(=O)c1CCN1CCC(=C(c2ccc(F)cc2)c2ccc(F)cc2)CC1` [Ritanserine, reference compound] was tested, and the “Effect on blood pressure” value [2] was “−”.

With `CN(C)CCCSC(=N)N` [dimaprit] the “effects of H2-agonists (ICP, blood pressure)” value (non-traumatised rats) was “No effects were observed” and the “effects of H2-agonists on blood pressure and ICP, high dose” value (non-traumatised rats) was “blood pressure and ICP were observed to drop, but recovered after the treatment”.

In the case of `Cc1nc[nH]c1CSCCN=C(N)NCCCc1cnc[nH]1` [impromidine], the “effects of H2-agonists (ICP, blood pressure)” value (non-traumatised rats) is reported as “No effects were observed” and the “effects of H2-agonists on blood pressure and ICP, high dose” value (non-traumatised rats) is reported as “blood pressure and ICP were observed to drop, but recovered after the treatment”.

Cyclodextrine was tested, and the “Effect on ICP” value [2] was “−”.
